One assay concerns Lck. As to the kind of experiment: Tyrosine phosphorylation in T cells, Western blotting with anti-PY antibody. The conditions noted are these: mouse spleen T cells; 5 and 25 uM; α-CD3 and α-CD4 or α-CD3. It counts as cell-based, C57/BL6 mouse. Here is the method: Western blotting was carried out using anti-tyrosine phosphorylation (anti-PY) antibody in order to investigate the mechanism by which the proliferation of T cells is inhibited by capsiate.
Specifically, 5×10^5 of the T cells isolated in Example 14-1 was placed on a 96-well plate and capsiate was treated at concentrations of 5 and 25 uM. After treating with 2 μg/mL α-CD3 and α-CD4, or 2 μg/mL α-CD3, followed by incubation for 10 minutes in ice and then incubation for 10 minutes at 37° C., centrifuge was carried out. The cells obtained from the centrifuge was lysed using RIPA buffer containing 2 mM EDTA, 137 mM NaCl, 20 mM Tris-HCl (pH 8.0), 1 mM sodium vanadate, 10 mM NaF, 1 mM phenylmethanesulfonyl fluoride (PMSF), 1% NP-40, 10% glycerol and protease inhibitor cocktail, and subjected to SDS-PAGE electrophoresis using 10% acrylamide gel in order to isolate the proteins. The isolated proteins were transferred to a nylon membrane and tyrosine phosphorylated proteins were separated using mouse anti-PY antibody (Becton Dickison, USA) and anti-mouse IgG-HRP conjugation antibody (1; 10,000, Zymed) as the secondary antibody. The isolated proteins were detected by ECL (Amersham, USA) and visualized using RAS 3000 imaging system (Fuji Film, Japan).

The next assay has as its system NF-κB. Kind of assay: UV-induced NF-κB activation, immunohistochemical staining. The conditions noted are these: HaCaT cells; 25 μM; UV 100 J/m^2; 4 hours. The format is cell-based, human. Here is the method: In order to investigate whether the transcription factor NF-κB is activated, the human keratinocyte cell line HaCaT cells were stained by immunohistochemical staining as follows.
The cells were placed on a 14 mm culture slide and cultured for 24 hours in DMEM containing 10% FBS. Subsequently, the cells were cultured for 24 hours in DMEM containing 1% FBS until starvation. Then, after treating with 25 μM capsiate for 30 minutes, followed by washing 3 times with PBS, UV was irradiated at an intensity of 100 J/m^2. Immediately after the UV irradiation, the cells were washed again with PBS and further cultured for 4 hours in DMEM containing 1% FBS, which was treated with capsiate at the same concentration as in the pre-treatment. The cells were fixed for 5 minutes using methanol for immunohistochemical staining.
The fixed cells were blocked using 10% normal goat serum and washed 3 times with PBS. After fluorescence staining NF-κB using rabbit anti-NF-κB antibody (Santa Cruz, USA) and Alexa 488-labeled anti-rabbit IgG secondary antibody (Invitrogen, USA), counter staining was carried out using Hoechst (Sigma, St. Louis, Mo.).

Another assay has as its system MMP-2. As to the kind of experiment: MMP-2 mRNA in mouse skin, RT-PCR. To be noted: mouse tissue of Example 5; normalized using GAPDH. The format is in vivo. The protocol:
mRNA was extracted from the mouse tissue of each test group of Example 5 and the level of expression thereof was evaluated in order to investigate the effect of capsiate on the expression of MMP-2 and MMP-9 induced by angiogenesis and immune response.
For RNA extraction from the tissue, each mouse tissue was subjected to skin biopsy, quickly frozen in liquid nitrogen and finely ground using a mortar. RNA was extracted from the mouse tissue using Trizol (Invitrogen, USA). PCR (PTC-225 Peltier thermal cycler, MJ Research, USA) was carried out using the RNA as template and using a commercial kit (reverse transcription system, Qiagen, USA). As a result, cDNA for each test group was prepared.
RT-PCR (Rotor Gene 6 series, Corbett Research, Australia) was carried out using thus prepared cDNA as template and using MMP-2 and MMP-9 primers (Qiagen, USA). The level of mRNA expression for MMP was normalized using GAPDH. The level of expression was compared with that of the non-treated group, which was treated with acetone only.

Another assay relates to TNF-α. Kind of assay: UV-induced pro-inflammatory cytokine mRNA, RT-PCR: TNF-α. The format is cell-based, human. The conditions noted are these: HaCaT cells; 10, 25, 50 μM; UV 100 J/m^2; 4 hours. The protocol: 1×10^6 HaCaT cells were placed on a 100 mm Petri dish and cultured for 24 hours in DMEM containing 10% FBS. Subsequently, the cells were cultured for 24 hours in DMEM containing 1% FBS until starvation. Then, after treating with capsiate at different concentrations (10 μM, 25 μM, 50 μM) for 30 minutes, followed by washing 3 times with PBS, UV was irradiated at an intensity of 100 J/m^2 to induce the production of cytokines. Immediately after the UV irradiation, the cells were washed again with PBS and further cultured for 4 hours in DMEM containing 1% FBS, which was treated with capsiate at the same concentration as in the pre-treatment.
Then, the degree of mRNA expression for IL-6, IL-8 and TNF-α induced mainly in the skin by the UV irradiation was evaluated by RT-PCR in order to measure the inhibition effect against the pro-inflammatory cytokines.
RNAs were extracted from the cells of each test group using Trizol (Invitrogen, USA) and used as template for PCR (PTC-225 Peltier thermal cycler, MJ Research, USA) to prepare cDNAs for each test group. Using the resultant cDNAs as template, the degree of mRNA expression for IL-6, IL-8 and TNF-α was measured by RT-PCR (Roter Gene 6000 series, Corbett Research, Australia) using commercial IL-6, IL-8 and TNF-α primers. […]

The next assay has as its system PECAM-1 (CD31). Kind of assay: PECAM-1 expression in mouse skin, immunohistochemical staining. The format is in vivo. The conditions noted are these: mouse skin tissue of Example 5; treated prior to UV irradiation. Here is the method:
(§1) In order to investigate the effect of capsiate on various intracellular angiogenesis-related expression factors, the inhibition effect of capsiate on angiogenesis factors induced by UV was evaluated using the mouse tissue of Example 5.
To investigate this effect, the paraffin-embedded tissue prepared as in Example 6 was processed in the same manner as Example 6, treated with PECAM-1 antibody (1:100, BD Pharmingen, USA) on a slide, treated with biotinylated secondary antibody (DAKO code K0675; DAKO Corp., USA) for 30 minutes, and washed 3 times. After treatment with streptavidin-peroxidase (DAKO code K0675, DAKO Corp., USA) for 30 minutes, followed by washing 3 times with PBS, the tissue was stained using DAB (DAKO Corp., USA) for confirmation of the level of PECAM-1 expression.

The next assay relates to VEGF. As to the kind of experiment: VEGF expression in mouse skin, Western blotting. It counts as in vivo. The conditions noted are these: treated prior to UV irradiation. The protocol: as §1
Western blotting was carried out in the same manner as Example 6 using the proteins isolated from the mouse skin tissue of each test group in Example 6, in order to investigate of capsiate on VEGF, which plays an important role in angiogenesis. In order to investigate the level of VEGF expression, VEGF antibody (Santa Cruz, USA) and HRP-conjugated secondary antibody (1:10,000, Zymed) were used.

The subject of a further assay is ERK. As to the kind of experiment: MAPK signaling in mouse skin tissue, Western blotting: ERK. The format is in vivo. To be noted: hairless mouse; UV+CPT vs UV with acetone only. Here is the method: In order to investigate the intracellular mechanism (signaling) related with the inhibition of COX-2 expression by capsiate, Western blotting was carried out for MAPK signaling-related proteins (ERK, p-ERK, p38, p-p38 and JNK, p-JNK) as in Example 2-2, using proteins isolated from the mouse skin tissue.

For the molecule `COc1cc(COC(=O)CCCC/C=C/C(C)C)ccc1O` [capsiate], in the assay with Lck, the “tyrosine phosphorylation in T cells” value is recorded as “inhibited”. Further, the “UV-induced migration of NF-κB into the nuclei” value with NF-κB is listed as “inhibits”. For the same molecule, the “expression of MMP-2 (mRNA) in mouse skin tissue” value in the assay on MMP-2 is “decreased”. Also, the “expression of TNF-α (mRNA) increased by UV irradiation” value in the assay on TNF-α was “significantly decreases”. Further, the “level of PECAM-1 expression” value in the assay on PECAM-1 (CD31) is “significantly lower”. For the same molecule, in the assay on VEGF, the “level of VEGF expression in the mouse skin tissue” value is recorded as “decreased”. Also, the “ERK phosphorylation in mouse skin tissue” value in the assay on ERK is on record as “suppressed phosphorylation”.

The record behind these values is patent US9572786B2, “Use of capsiate or dihydrocapsidate” (Catholic University Industry Academy Cooperation Foundation, priority 2007, dated 2017).
